Data set [1] can be described thus: Intrinsic dissolution rate (IDR), Wood's apparatus. In kind it is physicochemical. The settings on record: 900 ml distilled water, 37° C., 50 rpm; approx. 200 mg compressed at 1.5 metric tons for 1 minute. As to the method:
Intrinsic dissolution rate (IDR) measurements were performed using a Wood's apparatus. Samples were prepared by compressing an amount (approximately 200 mg) of sample at 1.5 metric tons for 1 minute. A dissolution medium consisting of 900 ml distilled water maintained at 37° C., and rotation speed of 50 rpm, was used for each experiment.

For data set [2] the following is noted: drug substance, as described in CHMP Assessment Report; cited from earlier work.
For data set [3] the following is noted: drug substance, as described in CHMP Assessment Report; cited from earlier work. The source holds these as a separate data set.

For the compound `CNC(=O)c1ccc(N2C(=S)N(c3cnc(C#N)c(C(F)(F)F)c3)C(=O)C23CCC3)cc1F` [Apalutamide Amorphous Form], the “Intrinsic Dissolution Rate” value in data set [1] is 0.0085 mg min^−1 cm^−2.

For `CNC(=O)c1ccc(N2C(=S)N(c3cnc(C#N)c(C(F)(F)F)c3)C(=O)C23CCC3)cc1F` [Apalutamide Form B], the “Intrinsic Dissolution Rate” value in data set [1] was 0.0065 mg min^−1 cm^−2.

For the compound `CNC(=O)c1ccc(N2C(=S)N(c3cnc(C#N)c(C(F)(F)F)c3)C(=O)C23CCC3)cc1F` [apalutamide, (4-[7-(6-cyano-5-trifluoromethylpyridin-3-yl)-8-oxo-6-thioxo-5,7-diazaspiro[3.4]oct-5-yl]-2-fluoro-N-methylbenzamide)], in data set [2], the permeability result was “high”. Also, in data set [3], the “Biopharmaceutics Classification System (BCS) class” value is “Class II” and the aqueous solubility result is given as “low, pH-independent”.

The values above are taken from patent publication US20250049774A1, “Crystalline Forms of Apalutamide” (Apotex Inc., priority 2021, published 2025).
